Experiments:
Format in all cases: cell-based, human
[1] = tested on: T cell lines primed in vitro to Der f II; experiment: secondary proliferation of Der f II-primed T cell lines (Examples IX, X, XI); details: for T cell response to Der p II peptides: Der f II primed, FIG. 11
Method: Experiments similar to those of Example V were performed to determine the T cell-reactive areas of the Der f II protein. For example, PBMC from house dust mite-allergic patient 384 were stimulated in vitro with purified recombinant Der f II and the T cell line was then challenged in the presence of x-irradiated (25,000 Rads) autologous Epstein-Barr virus transformed B cells as antigen presenting cells with various overlapping […]. The results of this proliferation assay indicate that T cells from this particular patient respond well to peptides DF II-1, DF II-2, DF II-3.1, DF II-4.5, DF II-15, DF II-16, and DF I-19.1 (data not shown).
The above procedure was followed with 10 patients, except in individual cases, T cell lines were primed by stimulating the patient PBMC with 20 μg/ml or 3 μg/ml purified native Der f II, and were assayed in the presence of x-irradiated (3500 Rads) autologous PBMC as antigen-presentingcells.
A study similar to that described in Example VII was carried out to determine the T cell cross-reactivity of the Der p II and Der f II proteins. T cells primed with the Der f II protein were challenged with various Der f II peptides and a set of substantially matching Der p II peptides. […]

[2] = tested on: T cell lines primed in vitro to Der p II; experiment: secondary proliferation of Der p II-primed T cell lines (Examples VIII, X, XI); details: for T cell reactivity: overlapping Der p II peptides, FIG. 9; for T cell response: patient 348, native Der p II primed, data not shown
Summary of the method: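 PBMC from house dust mite-allergic patients primed in vitro with native or recombinant Der p II at 20 μg/ml (or recombinant at 3 μg/ml), with x-irradiated (3500 Rads) autologous PBMC as antigen-presenting cells. Lines then challenged with Der p II-derived peptides; proliferation expressed as S.I., ranked sum scoring top three responses 3, 2, 1.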

[3] = tested on: T cell lines primed in vitro to Der p I; experiment: secondary proliferation of Der p I-primed T cell lines (Examples V, VII, XI); details: for T cell reactivity: overlapping Der p I peptides
Summary of the method: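 PBMC were primed with native or recombinant Der p I (10 or 20 μg/ml) for 7 days, then expanded with IL-2 and IL-4. Resting T cells (2×10^4) were cultured 3 days with irradiated autologous EBV-B cells or PBMC and titrated protein or peptides, then pulsed 16 h with 1 μCi ³H-thymidine. S.I. was peak-response CPM over medium-only CPM, with S.I. ≥2.0 scored positive.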

[4] = tested on: T cell cultures reactive with Der p I from house dust mite-allergic subjects; experiment: secondary T cell proliferation assay, Group I (Der p I) overlapping and candidate/unique peptides; percent of T cell reactivity; details: patient 1733; highest S.I. ≥2.0 recorded
Source text: To determine whether a peptide (candidate peptide) or a combination of candidate peptides are likely to comprise a sufficient percentage of the T cell reactivity of house dust mite protein allergens, to induce T cell nonresponsiveness in a substantial percentage of a population of individuals sensitive to house dust mite allergen, an algorithm can be used. In accordance with one such algorithm, a set of overlapping peptides is produced by systematically dividing the protein allergen(s) of interest into al least two overlapping peptide regions of desired lengths (e.g., of about 12-30 amino acid residues in length, preferably not longer than about 25 amino acid residues in length with about 5-15 amino acid residues of overlap). This division into peptide regions can be arbitrary, can be made according to an algorithm, or can be wholly or partially based on regions of house dust mite Group I and/or Group II protein allergens known to comprise at least one T cell epitope. Preferably, at least 50% of the entire house dust mite protein allergen sequence and more preferably, the entire house dust mite protein allergen sequence is divided into two or more peptides. A human T cell stimulation index is determined for each of the peptides in an in vitro T cell proliferation assay as described herein for each individual tested in a population of individuals sensitive to the protein antigen. For example both WO93/08279 and WO94/24281 disclose T cell studies with overlapping peptides derived from Der p I, Der p II, Der f I and Der f II. A candidate peptide or combination of candidate peptides is selected based, at least in part, on the mean human T cell stimulation index of the candidate peptide in the set of peptides tested and the positivity index of the candidate peptide in the set of peptides tested (see, FIGS. 3 and 4). The human T cell stimulation index for the candidate peptide(s) is summed. For each individual, the human T cell stimulation index for the candidate peptide(s) is divided by the sum of the human T cells stimulation indices of the remaining peptides in the set of peptides tested to determine a percent of T cell reactivity as shown below:
Alternatively, the presence of T cell epitopes in the candidate peptide dependent on amino acids residues in an overlapping peptide located at either the N-terminus or C-terminus of the candidate peptide in the amino acid sequence of the protein antigen, but which epitopes are not present in the candidate peptide can be considered in calculating the percent of T cell reactivity in the candidate peptide by use of the following formula: [formula]
In this formula, "NT flanking peptide" refers to a peptide which comprises amino acid residues which overlap with amino acid residues located at the N-terminus of the candidate peptide in the amino acid sequence of the protein antigen from which the peptide is derived; "CT flanking peptide" refers to a peptide which comprises amino acid residues which overlap with amino acid residues located a the C-terminus of the candidate peptide in the amino acid sequence of the protein antigen from which the peptide is derived. In this calculation stimulation indices for the candidate peptide, the N-terminal flanking peptide and the C-terminal flanking peptide are added and divided by the sum total of the stimulation indices for the entire set of overlapping peptides obtain a percent of T cell reactivity for the candidate peptide. If a combination of two or more candidate peptides is selected each of which contains amino acid residues which overlap, this calculation cannot be used to determine a percent of T cell reactivity for each candidate peptide separately. However, a total percent of T cell reactivity for the combination of candidate peptides can be obtained. In this situation, the stimulation indices for all of the candidate peptides which overlap is included in the calculation. […]

[5] = tested on: PBMC from mite-allergic patient; experiment: primary T cell (PBMC) proliferation, mite-allergic patient, tritiated thymidine; details: medium 1071 ± 30
Method: Peripheral blood mononuclear cells (PBMC) were purified by Ficoll-Hypaque centrifugation of a peripheral blood specimen from mite-allergic patient and were assayed for proliferation in response to various antigens, i.e., affinity-purified Der p I, affinity purified Der p II, various Der p I and Der p II peptides. For assay, 5×10^4 PBMC were cultured in triplicate microwells for 7 days at 37° C. in the presence of various concentrations of antigen in 200 μl RPMI-1640 containing 5% human AB serum. Each well then received 1 μCi tritiated thymidine for 16 hours. The counts incorporated were collected onto glass fiber filters and processed for liquid scintillation counting. […] The CPM +/- standard deviation are shown. The stimulation index of each response (S.I.) is the ratio of the ^3 H-thymidine CPM incorporated by the cells in response to antigen divided by the ^3 H-thymidine CPM incorporated by cells in medium only. […] Thus, these peptides contain Der p I or Der p II T cell epitopes recognized by T cells from this particular allergic patient.

[6] = tested on: T cell lines primed in vitro with Der p II; experiment: T cell proliferation with fine map and modified Group II peptides (Example XIV); details: FIGS. 32a-b
Method: Long term T cell lines were established by stimulation of 2×10^6 PBL/ml in bulk cultures of complete medium (RPMI-1640, 2 mM L-glutamine, 100 U/ml penicillin/streptomycin, 5×10^-5 M 2-mercaptoethanol, and 10 mM HEPES supplemented with 5% heat inactivated human AB serum) with 30 μg/ml of purified native Der p I or Der p II for 5-6 days at 37° C. in a humidified 5% CO2 incubator to select for house dust mite protein allergen reactive T cells. This amount of priming antigen was determined to be optimal for the activation of T cells from house dust mite allergic patients. Viable cells were purified by LSM centrifugation and cultured in complete medium supplemented with 5 units recombinant human IL-2/ml and 5 units recombinant human IL-4/ml for up to three weeks until the cells no longer responded to lymphokines and were considered "rested". The ability of the T cells to proliferate to selected peptides, purified Der p I or Der p II, or positive (PHA) controls or negative controls (medium only) was then assessed. For assay, 2×10^4 rested cells were restimulated in the presence of 2×10^4 autologous Epstein-Barr virus (EBV)-transformed B cells (prepared as described below) (gamma-irradiated with 25,000 RADS) or with 5×10^4 autologous PBMs (gamma-irradiated with 3500 RADS), with 2-50 μg/ml of purified native Der p I or Der p II in a volume of 200 μl complete medium in duplicate or triplicate wells in 96-well round bottom plates for 3 days. Each well then received 1 μCi tritiated thymidine for 16-20 hours. The counts incorporated were collected onto glass fiber filter mats and processed for liquid scintillation counting. […] The titrations were used to optimize the dose of peptides in T cell assays.
The maximum response in a titration of each peptide is expressed as the stimulation index (S.I.). The S.I. is the counts per minute (CPM) incorporated by cells in response to peptide, divided by the CPM incorporated by cells in medium only. […] The positive results were used in calculating mean stimulation indices for each peptide for the individual patient tested.
The above procedure was followed with 18 patients in the studies using peptides derived from Der p I and Der f I (FIGS. 31a-b), and 21 patients in the studies with Der p II peptides (FIGS. 32a-b). Individual patient results were used in calculating the mean S.I. for each peptide if the patient responded to the Der p I or Der p II protein at an S.I. of 2.0 or greater and the patient responded to at least one peptide derived from a house dust mite allergen at an S.I. f 2.0 or greater. A summary of positive experiments from the patients tested is shown in FIGS. 32a and 32b and FIGS. 33a and 33b. The bars represent the positivity index. […] In parenthesis above each bar are the mean stimulation indices for each peptide or protein for the group of patients tested.
Autologous EBV-transformed cell lines were γ-irradiated with 25,000 Rad and used as antigen presenting cells in secondary proliferation assays and secondary bulk stimulations. These EBV-transformed cell lines were made by incubating 5×10^6 PBL with 1 ml of B-59/8 Marmoset cell line (ATCC CRL1612, American Type Culture Collection, Rockville, Md.) conditioned medium in the presence of 1 μg/ml phorbol 12-myristate 13-acetate (PMA) at 37° C. for 60 minutes in 12×75 mm polypropylene round-bottom Falcon snap cap tubes (Becton Dickinson Labware, Lincoln Park, N.J.). These cells were then diluted to 1.25×10^6 cells/ml in RPMI-1640 as described above except supplemented with 10% heat-inactivated fetal bovine serum and cultured in 200 μl aliquots in flat bottom culture plates until visible colonies were detected. They were then transferred to larger wells until the cell lines were established.

DF II-19.1: Der f II peptide (VVTVKLVGDNGVLACAIATHAKIRD)
T cell reactivity ([1]; overlapping Der f II peptides, 10 positive experiments, FIG. 10): significant areas of T cell reactivity | T cell response to Der f II peptides ([2]; Der p II primed, 26 positive experiments, FIG. 12): respond significantly

DP I-6.1: Der p I peptide (YPPNANKIREALAQTHSAIAVIIG)
T cell reactivity ([3]; 33 positive experiments): significant regions of T cell reactivity | T cell stimulation index (S.I.) [4]: 2.1

DP I-7.1: Der p I peptide (AQTHSAIAVIIGIKDLDAFRHYDGRT)
T cell reactivity ([3]; 33 positive experiments): significant regions of T cell reactivity | T cell stimulation index (S.I.) [4]: 2.2

DP I-9: Der p I peptide (IIQRDNGYQPNYHAVNIVGYSNA)
T cell reactivity ([3]; 33 positive experiments): significant regions of T cell reactivity | T cell stimulation index (S.I.) [4]: 2.4

DP I-12.1: Der p I peptide, native sequence (ELVDCASQHGCHGDTIPRGIE)
difference in mean S.I. or percentage of positive responses, original vs additional (native sequence) peptides ([3]; DP I-11/12 vs DP I-11.1/12.1): no significant difference | T cell stimulation index (S.I.) [4]: 2.2

DP I-16: Der p I peptide (HAVNIVGYSNAQGVDYWIVRNS)
T cell reactivity ([3]; 33 positive experiments): significant regions of T cell reactivity | T cell stimulation index (S.I.) [4]: 2.0

DP I-17: Der p I peptide (GDNGYGYFAANIDLMMIEEYPYVVIL)
T cell stimulation index (S.I.) [4]: 0

DP I-22.2: Der p I peptide (VAATESAYLAHRNQSLDLAEQELVD)
T cell response to selected Der p I peptides ([3]; 33 positive experiments, FIG. 13): respond significantly | T cell stimulation index (S.I.) [4]: 3.1

DP II-1: Der p II peptide (DQVDVKDCANHEIKKVLVPG)
T cell response to Der p II peptides ([1]; 10 positive experiments): respond significantly | T cell reactivity ([2]; 26 positive experiments): significant T cell reactivity | T cell response [2]: responds well

DP II-4: Der p II peptide (QLEAVFEANQNTKTAKIEIKASIDG)
CPM ± S.D. ([5]; 10 μg/ml): 2126 ± 25 CPM | CPM ± S.D. ([5]; 30 μg/ml): 1979 ± 94 CPM | CPM ± S.D. ([5]; 100 μg/ml): 2314 ± 116 CPM | T cell response to Der p II peptides ([1]; 10 positive experiments): respond significantly | T-cell reactivity (DPII-22 series development) ([2]; Der p II T-cell map and analogs): high T-cell reactivity | T cell reactivity ([2]; 26 positive experiments): significant T cell reactivity

DP II-7: Der p II peptide (CPLVKGQQYDIKYTWNVPKIAPKSENV)
T cell response to Der p II peptides ([1]; 10 positive experiments): respond significantly | T cell reactivity ([2]; 26 positive experiments): significant T cell reactivity | T cell response [2]: responds well

DP II-25: Der p II peptide (TVKVMGDDGVLACAIATHAKIRD)
stimulation index / response to selected Der p II peptides ([1]; 10 patients, FIG. 18a): highest stimulation index | T cell response, Group II peptides [6]: positive T cell studies
